The nature of data set [1]: Metabolite identification in human liver microsomes. The class given is in vitro ADME. How it is done: In vitro identification of metabolites was performed by incubating Cpd.51 (parent compound, final concentration 10 µM) with human liver microsomes (final protein concentration, 1 mg/mL) at 37 °C in a 100 mM potassium phosphate buffer containing 5 mM MgCl2. Samples were quenched with methanol and analyzed using a Waters G2-XS Q-Tof UPLC-MS system employing positive-ion and negative-ion electrospray ionization. The LC-MS extract ion chromatograms to identify the major putative metabolites. MS/MS spectra of Cpd.51 and its metabolites were acquired during both positive-ion and negative-ion electrospray. The potential chemical structures of the metabolites were inferred from their MS/MS spectra and retention times. Metabolic pathways of Cpd.51 in human liver microsomes were subsequently proposed. […]
The objective of this study is to identify major metabolites of Cpd.51 generated in human […]
In vitro metabolites identification was conducted after incubating Cpd.51 (parent compound, final concentration 10 µM) with human liver microsomes (final protein concentration, 1 mg/mL) at 37 °C in 100 mM potassium phosphate buffer containing 5 mM MgCl2 in the presence of NADPH or without NADPH. The samples taken at 0 minute (min) and 5 min were quenched by methanol and analyzed using Waters G2-XS Q-Tof UPLC-MS system with positive-ion and negative-ion electrospray ionization. […]
A general note: Liver microsomes are vesicles of endoplasmic reticulum, rich in cytochrome P450 enzymes.

The target of a further data set is T1, DHRS3-Nrf2 complex (Homo sapiens, UniProt O75911).
T1 construct: endogenous in cells; host or cells: SH-SY5Y
T1 sequence (O75911 1-302): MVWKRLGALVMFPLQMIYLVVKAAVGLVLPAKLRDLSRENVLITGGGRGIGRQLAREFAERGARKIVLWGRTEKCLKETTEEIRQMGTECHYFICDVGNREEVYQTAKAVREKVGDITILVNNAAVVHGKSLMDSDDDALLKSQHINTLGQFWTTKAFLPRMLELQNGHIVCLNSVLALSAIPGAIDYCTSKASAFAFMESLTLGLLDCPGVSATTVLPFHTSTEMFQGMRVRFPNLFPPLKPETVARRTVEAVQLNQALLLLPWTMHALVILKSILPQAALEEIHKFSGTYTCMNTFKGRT
The data set can be described thus: Co-IP of Nrf2-DHRS3 interaction in SH-SY5Y cells. The class given is cell-based. The note with it: 100 nM, physiological and OGD/R conditions. How it is done: Co-IP experiments were performed as described. After SH-SY5Y cells were treated, lysates were collected and incubated with antibodies with rotation for 12 h at 4 °C. Then, they were incubated with protein A/G magnetic beads (88804, Thermo Scientific, USA) as specification. Subsequently, the beads were collected and immune complexes were isolated. Finally, protein complexes were incubated for 5 min at 95 °C after dissolving in the electrophoresis sample buffer, and subjected to western blotting.

Another data set relates to SH-SY5Y cells. The data set can be described thus: Protection against OGD/R damage in SH-SY5Y cells (CCK-8). The note with it: for EC50: Homo sapiens. The class given is cell-based, human. The protocol: To mimic ischemic conditions in vitro, cells were washed with PBS and then cultured for 2.5 h at 37 °C in glucose-free medium under anaerobic conditions (5% hydrogen, 90% nitrogen, and 5% carbon dioxide). OGD process was terminated by transferring cells back to normal glucose-containing medium under normoxic conditions (5% CO₂, 37 °C) and maintained for 24 h.
In the administration group, cells were exposed for 12 h with Cpd.51 prior to OGD. OGD lasted for 2.5 h and the reperfusion lasted for 24 h before the experiment was concluded. Subsequently, cell viability was determined using the cell counting kit-8 (CCK-8, C0039, Beyotime, China). In the experiment to explore the treatment time window, the only difference was the timing of the Cpd.51 treatment, while all other procedures remained unchanged.
Hek-293T cells were transiently transfected, using Lipofectamine™ 3000 and P3000™ reagent (L3000075, Invitrogen, USA) according to the manufacturer's instructions, with the wild-type, point-mutant and double-mutations constructs of Keap1, DHRS3 or Nrf2 (each at 0.5 ng/μL), respectively. Similarly, to promote the expression of the DHRS3 gene, a DHRS3 expression plasmids (0.5 ng/μL) was transfected as well as the corresponding negative controls into SH-SY5Y cells for 6 h, and further cultured with fresh medium for 18 h according to the manufacturer's instructions.

Data on one compound can be found in paper PMC13081163, “Discovery of a novel Nrf2 activator that modulates mitochondrial function in neurons by regulating DHRS3-Nrf2 interaction after ischemic stroke” (Theranostics, 2026).

Where two headings read alike, the source gives them in different places.

As to `CC1(C)CCC2(C(=O)NO)CCC3(C)C(C(=O)C=C4C5(C)C=C(C#N)C(=O)C(C)(C)C5CCC43C)C2C1` (stereo not shown) [Cpd.51], in data set [1] (human liver microsomes), the “number of major metabolites” value turned out to be 10. In addition, the “Relative UV abundance (5 min), relative to parent in T0 sample” value in data set [1] (human liver microsomes with NADPH, 10 µM Cpd.51, 5 min, UV 250-260 nm) was found to be 54.06%. Besides, at DHRS3-Nrf2 complex, the “DHRS3-Nrf2 complex formation (Co-IP)” value is “substantially reduced DHRS3-Nrf2 complex formation”. In addition, the “OGD/R damage when administered at different time points” value in the data set with SH-SY5Y cells (100 nM, CCK-8) was “consistently alleviated OGD/R damage”. Also, the EC50 in the data set on SH-SY5Y cells (SH-SY5Y, DHRS3-OE (DHRS3 overexpression plasmid), read-out: EC50 of cytoprotection against OGD/R) turned out to be 183 nM; with SH-SY5Y cells (SH-SY5Y, NC-OE, read-out: EC50 of cytoprotection against OGD/R), 53 nM; in the data set on SH-SY5Y cells (read-out: EC50 against OGD/R damage) it was 19.7 nM.
